Assay results published in the CheMixHub viscosity set.
Where “and” joins values, the source holds several entries; their conditions need not be identical. Equal values may be shown once.

Experiment: xn = mol fraction of the nth substance listed

CN(C)C=O + O
Conditions	viscosity
293.15 K, 101 kPa, x1 = 0.0254	1.471 mPa·s
293.15 K, 101 kPa, x1 = 0.0555	1.784 mPa·s
293.15 K, 101 kPa, x1 = 0.0915	2.173 mPa·s
293.15 K, 101 kPa, x1 = 0.1355	2.435 mPa·s
293.15 K, 101 kPa, x1 = 0.1904	2.755 mPa·s
293.15 K, 101 kPa, x1 = 0.2608	2.969 mPa·s
293.15 K, 101 kPa, x1 = 0.2921	2.981 mPa·s
293.15 K, 101 kPa, x1 = 0.304	3.018 mPa·s
293.15 K, 101 kPa, x1 = 0.3199	2.973 mPa·s
293.15 K, 101 kPa, x1 = 0.3544	2.937 mPa·s
293.15 K, 101 kPa, x1 = 0.4137	2.705 mPa·s
293.15 K, 101 kPa, x1 = 0.4848	2.515 mPa·s
293.15 K, 101 kPa, x1 = 0.5714	2.002 mPa·s
293.15 K, 101 kPa, x1 = 0.6792	1.674 mPa·s
293.15 K, 101 kPa, x1 = 0.8171	1.276 mPa·s
293.15 K, 101 kPa, x2 = 0.1	0.9649 mPa·s and 0.9619 mPa·s
293.15 K, 101 kPa, x2 = 0.2	1.129 mPa·s and 1.125 mPa·s and 1.65 mPa·s
293.15 K, 101 kPa, x2 = 0.3	1.357 mPa·s and 1.351 mPa·s
293.15 K, 101 kPa, x2 = 0.4	1.674 mPa·s and 1.67 mPa·s and 2.25 mPa·s
293.15 K, 101 kPa, x2 = 0.5	2.177 mPa·s and 2.088 mPa·s
293.15 K, 101 kPa, x2 = 0.6	2.564 mPa·s and 2.556 mPa·s
293.15 K, 101 kPa, x2 = 0.7	2.885 mPa·s and 2.875 mPa·s
293.15 K, 101 kPa, x2 = 0.8	2.761 mPa·s and 2.754 mPa·s
293.15 K, 101 kPa, x2 = 0.9	2.019 mPa·s and 2.015 mPa·s
293.15 K, 101 kPa, x2 = 0.92	1.818 mPa·s and 1.813 mPa·s
293.15 K, 101 kPa, x2 = 0.94	1.622 mPa·s and 1.616 mPa·s
293.15 K, 101 kPa, x2 = 0.96	1.408 mPa·s and 1.403 mPa·s
293.15 K, 101 kPa, x2 = 0.98	1.203 mPa·s and 1.2 mPa·s
293.15 K, 101.33 kPa, x1 = 0.0217	1.225 mPa·s
293.15 K, 101.33 kPa, x1 = 0.0466	1.483 mPa·s
293.15 K, 101.33 kPa, x1 = 0.0989	2.011 mPa·s
293.15 K, 101.33 kPa, x1 = 0.1478	2.357 mPa·s
293.15 K, 101.33 kPa, x1 = 0.196	2.65 mPa·s
293.15 K, 101.33 kPa, x1 = 0.2481	2.888 mPa·s
293.15 K, 101.33 kPa, x1 = 0.2859	2.908 mPa·s
293.15 K, 101.33 kPa, x1 = 0.3728	2.707 mPa·s
293.15 K, 101.33 kPa, x1 = 0.4919	2.262 mPa·s
293.15 K, 101.33 kPa, x1 = 0.5936	1.748 mPa·s
293.15 K, 101.33 kPa, x1 = 0.7991	1.184 mPa·s
293.15 K, 101.33 kPa, x1 = 0.8795	1.073 mPa·s
298.15 K, 101 kPa, x2 = 0.1	0.9018 mPa·s and 0.8984 mPa·s
298.15 K, 101 kPa, x2 = 0.3	1.233 mPa·s and 1.232 mPa·s
298.15 K, 101 kPa, x2 = 0.4	1.508 mPa·s and 1.503 mPa·s
298.15 K, 101 kPa, x2 = 0.5	1.853 mPa·s and 1.847 mPa·s
298.15 K, 101 kPa, x2 = 0.6	2.226 mPa·s and 2.225 mPa·s
298.15 K, 101 kPa, x2 = 0.7	2.477 mPa·s and 2.469 mPa·s
298.15 K, 101 kPa, x2 = 0.8	2.345 mPa·s
298.15 K, 101 kPa, x2 = 0.9	1.746 mPa·s and 1.744 mPa·s
298.15 K, 101 kPa, x2 = 0.92	1.583 mPa·s and 1.576 mPa·s
298.15 K, 101 kPa, x2 = 0.94	1.412 mPa·s and 1.408 mPa·s
298.15 K, 101 kPa, x2 = 0.96	1.234 mPa·s
298.15 K, 101 kPa, x2 = 0.98	1.065 mPa·s and 1.063 mPa·s
302.15 K, 101 kPa, x1 = 0.0254	1.266 mPa·s
302.15 K, 101 kPa, x1 = 0.0555	1.535 mPa·s
302.15 K, 101 kPa, x1 = 0.0915	1.856 mPa·s
302.15 K, 101 kPa, x1 = 0.1355	2.071 mPa·s
302.15 K, 101 kPa, x1 = 0.1904	2.333 mPa·s
302.15 K, 101 kPa, x1 = 0.2608	2.542 mPa·s
302.15 K, 101 kPa, x1 = 0.2921	2.58 mPa·s
302.15 K, 101 kPa, x1 = 0.304	2.604 mPa·s
302.15 K, 101 kPa, x1 = 0.3199	2.572 mPa·s
302.15 K, 101 kPa, x1 = 0.3544	2.526 mPa·s
302.15 K, 101 kPa, x1 = 0.4137	2.327 mPa·s
302.15 K, 101 kPa, x1 = 0.4848	2.201 mPa·s
302.15 K, 101 kPa, x1 = 0.5714	1.812 mPa·s
302.15 K, 101 kPa, x1 = 0.6792	1.533 mPa·s
302.15 K, 101 kPa, x1 = 0.8171	1.176 mPa·s
303.15 K, 101 kPa, x2 = 0.1	0.8402 mPa·s and 0.8389 mPa·s
303.15 K, 101 kPa, x2 = 0.2	0.9593 mPa·s and 0.9567 mPa·s
303.15 K, 101 kPa, x2 = 0.3	1.137 mPa·s and 1.122 mPa·s
303.15 K, 101 kPa, x2 = 0.4	1.354 mPa·s and 1.352 mPa·s
303.15 K, 101 kPa, x2 = 0.5	1.641 mPa·s and 1.639 mPa·s
303.15 K, 101 kPa, x2 = 0.6	1.943 mPa·s and 1.939 mPa·s
303.15 K, 101 kPa, x2 = 0.7	2.134 mPa·s and 2.132 mPa·s
303.15 K, 101 kPa, x2 = 0.8	2.026 mPa·s and 2.02 mPa·s
303.15 K, 101 kPa, x2 = 0.9	1.519 mPa·s and 1.516 mPa·s
303.15 K, 101 kPa, x2 = 0.94	1.24 mPa·s and 1.24 mPa·s
303.15 K, 101 kPa, x2 = 0.96	1.093 mPa·s and 1.091 mPa·s
303.15 K, 101 kPa, x2 = 0.98	0.9451 mPa·s and 0.9453 mPa·s
305.15 K, 101 kPa, x1 = 0.0254	1.107 mPa·s
305.15 K, 101 kPa, x1 = 0.0555	1.335 mPa·s
305.15 K, 101 kPa, x1 = 0.0915	1.61 mPa·s
305.15 K, 101 kPa, x1 = 0.1355	1.795 mPa·s
305.15 K, 101 kPa, x1 = 0.1904	2.021 mPa·s
305.15 K, 101 kPa, x1 = 0.2608	2.238 mPa·s
305.15 K, 101 kPa, x1 = 0.2921	2.27 mPa·s
305.15 K, 101 kPa, x1 = 0.304	2.308 mPa·s
305.15 K, 101 kPa, x1 = 0.3199	2.282 mPa·s
305.15 K, 101 kPa, x1 = 0.3544	2.262 mPa·s
305.15 K, 101 kPa, x1 = 0.4137	2.102 mPa·s
305.15 K, 101 kPa, x1 = 0.4848	1.934 mPa·s
305.15 K, 101 kPa, x1 = 0.5714	1.619 mPa·s
305.15 K, 101 kPa, x1 = 0.6792	1.393 mPa·s
305.15 K, 101 kPa, x1 = 0.8171	1.106 mPa·s
308.15 K, 101 kPa, x1 = 0.0254	0.985 mPa·s
308.15 K, 101 kPa, x1 = 0.027	0.9526 mPa·s
308.15 K, 101 kPa, x1 = 0.0555	1.164 mPa·s
308.15 K, 101 kPa, x1 = 0.058	1.163 mPa·s
308.15 K, 101 kPa, x1 = 0.0915	1.428 mPa·s
308.15 K, 101 kPa, x1 = 0.1355	1.583 mPa·s
308.15 K, 101 kPa, x1 = 0.14	1.539 mPa·s
308.15 K, 101 kPa, x1 = 0.1904	1.823 mPa·s
308.15 K, 101 kPa, x1 = 0.2608	1.989 mPa·s
308.15 K, 101 kPa, x1 = 0.2921	1.999 mPa·s
308.15 K, 101 kPa, x1 = 0.304	2.044 mPa·s
308.15 K, 101 kPa, x1 = 0.3199	1.976 mPa·s
308.15 K, 101 kPa, x1 = 0.3544	1.985 mPa·s
308.15 K, 101 kPa, x1 = 0.4137	1.872 mPa·s
308.15 K, 101 kPa, x1 = 0.4848	1.685 mPa·s
308.15 K, 101 kPa, x1 = 0.5714	1.424 mPa·s
308.15 K, 101 kPa, x1 = 0.6792	1.245 mPa·s
308.15 K, 101 kPa, x1 = 0.8171	1.029 mPa·s
308.15 K, 101 kPa, x2 = 0.1	0.7874 mPa·s and 0.7848 mPa·s
308.15 K, 101 kPa, x2 = 0.2	0.8915 mPa·s and 0.8893 mPa·s
308.15 K, 101 kPa, x2 = 0.3	1.036 mPa·s and 1.033 mPa·s
308.15 K, 101 kPa, x2 = 0.4	1.226 mPa·s and 1.224 mPa·s
308.15 K, 101 kPa, x2 = 0.5	1.468 mPa·s and 1.467 mPa·s
308.15 K, 101 kPa, x2 = 0.6	1.707 mPa·s and 1.702 mPa·s
308.15 K, 101 kPa, x2 = 0.7	1.856 mPa·s and 1.856 mPa·s
308.15 K, 101 kPa, x2 = 0.8	1.759 mPa·s and 1.757 mPa·s
308.15 K, 101 kPa, x2 = 0.9	1.335 mPa·s and 1.335 mPa·s
308.15 K, 101 kPa, x2 = 0.92	1.221 mPa·s and 1.22 mPa·s
308.15 K, 101 kPa, x2 = 0.94	1.1 mPa·s and 1.1 mPa·s
308.15 K, 101 kPa, x2 = 0.96	0.9743 mPa·s and 0.9712 mPa·s
308.15 K, 101 kPa, x2 = 0.98	0.8498 mPa·s and 0.8476 mPa·s
313.15 K, 101 kPa, x1 = 0.0254	0.856 mPa·s
313.15 K, 101 kPa, x1 = 0.027	0.8698 mPa·s
313.15 K, 101 kPa, x1 = 0.0555	1.011 mPa·s
313.15 K, 101 kPa, x1 = 0.058	1.067 mPa·s
313.15 K, 101 kPa, x1 = 0.0915	1.284 mPa·s
313.15 K, 101 kPa, x1 = 0.1355	1.433 mPa·s
313.15 K, 101 kPa, x1 = 0.14	1.392 mPa·s
313.15 K, 101.33 kPa, x1 = 0.0217	0.7737 mPa·s
313.15 K, 101.33 kPa, x1 = 0.0466	0.9108 mPa·s
313.15 K, 101.33 kPa, x1 = 0.0989	1.188 mPa·s
313.15 K, 101.33 kPa, x1 = 0.1478	1.404 mPa·s
313.15 K, 101.33 kPa, x1 = 0.2481	1.713 mPa·s
313.15 K, 101.33 kPa, x1 = 0.2859	1.729 mPa·s
313.15 K, 101.33 kPa, x1 = 0.3728	1.586 mPa·s
313.15 K, 101.33 kPa, x1 = 0.4919	1.351 mPa·s
313.15 K, 101.33 kPa, x1 = 0.5936	1.177 mPa·s
313.15 K, 101.33 kPa, x1 = 0.6889	1.005 mPa·s
313.15 K, 101.33 kPa, x1 = 0.7991	0.8768 mPa·s
313.15 K, 101.33 kPa, x1 = 0.8795	0.8096 mPa·s
318.15 K, 101 kPa, x1 = 0.027	0.796 mPa·s
318.15 K, 101 kPa, x1 = 0.058	0.9746 mPa·s
318.15 K, 101 kPa, x1 = 0.14	1.24 mPa·s
323.15 K, 101 kPa, x1 = 0.027	0.7318 mPa·s
323.15 K, 101 kPa, x1 = 0.058	0.8939 mPa·s
323.15 K, 101 kPa, x1 = 0.14	1.096 mPa·s
